Laboratory results published in patent US20250170101A1, “MONOACYLGLYCEROL LIPASE INHIBITORS AND USE THEREOF FOR THE TREATMENT AND MANAGEMENT OF PAIN AND RELATED CONDITIONS” (Psy Therapeutics, Inc., priority 2021, published 2025).

target: T1, MAGL enzyme (Homo sapiens, UniProt Q99685); assay: MAGL reversible inhibition assay (washout), Example 22; format: biochemical; parameters: % MAGL activity returning after washout: concentration or dose not given beside the values; conditions: pre-washout compound concentration 1 μM
T1 sequence (Q99685 1-303): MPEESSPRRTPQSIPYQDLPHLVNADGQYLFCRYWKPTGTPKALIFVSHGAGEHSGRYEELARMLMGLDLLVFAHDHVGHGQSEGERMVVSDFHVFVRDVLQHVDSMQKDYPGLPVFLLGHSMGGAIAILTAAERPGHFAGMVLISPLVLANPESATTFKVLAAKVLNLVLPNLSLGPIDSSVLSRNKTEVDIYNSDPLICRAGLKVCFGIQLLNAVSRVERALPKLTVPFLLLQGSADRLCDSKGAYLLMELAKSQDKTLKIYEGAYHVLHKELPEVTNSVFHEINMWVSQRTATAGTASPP
Experimental: The reversible mechanism of MAGL inhibition of a test compound of Formula (I) can be determined. Flag-tagged MAGL enzyme will be immobilized on anti-Flag beads. Immobilized enzyme will be incubated+/−inhibitor at a dose that produces complete inhibition. Colorimetric substrate (4-NPA) will be added and the reaction monitored on a plate reader for 30 minutes to verify complete inhibition. Immobilized enzyme will then be washed thoroughly to remove the inhibitor, and fresh substrate will be added. The reaction will be monitored for an additional 30 minutes; returning enzymatic activity will indicate reversibility of inhibition. […]
For some test compounds, % activity returning after washout may be less than 100%/if complete compound unbinding takes longer than 30 minutes.

degree to which MAGL enzymatic activity returned following washout of test compounds	Compound
155	Cc1cnn(C2CC3(C2)CN(C(=O)c2cc(O)ccc2F)C3)c1-c1cc(F)ccc1Cl (single isomer, unassigned) [Compound 519, {6-[5-(2-chloro-5-fluorophenyl)-4-methyl-1-pyrazolyl]-2-aza-2-spiro[3.3]heptyl}(2-fluoro-5-hydroxyphenyl)methanone]

same assay, conditions: relative to control (no inhibitor before washout), immediately following 30 minute washout

% MAGL activity returning after washout	Compound
>50%	Cc1cnn(C2CC3(C2)CN(C(=O)c2cc(O)ccc2F)C3)c1-c1cc(F)ccc1Cl (single isomer, unassigned) [Compound 519, {6-[5-(2-chloro-5-fluorophenyl)-4-methyl-1-pyrazolyl]-2-aza-2-spiro[3.3]heptyl}(2-fluoro-5-hydroxyphenyl)methanone]

target: T2, human recombinant FAAH (Homo sapiens, UniProt O00519); assay: FAAH counter screen (Cayman FAAH Inhibitor Screening Assay Kit), Example 21; format: biochemical; conditions: Method A: starting concentration of 100 μM
T2 construct: purchased Cayman kit Item No. 10005196; FAAH enzyme 700302
T2 sequence (O00519 1-579): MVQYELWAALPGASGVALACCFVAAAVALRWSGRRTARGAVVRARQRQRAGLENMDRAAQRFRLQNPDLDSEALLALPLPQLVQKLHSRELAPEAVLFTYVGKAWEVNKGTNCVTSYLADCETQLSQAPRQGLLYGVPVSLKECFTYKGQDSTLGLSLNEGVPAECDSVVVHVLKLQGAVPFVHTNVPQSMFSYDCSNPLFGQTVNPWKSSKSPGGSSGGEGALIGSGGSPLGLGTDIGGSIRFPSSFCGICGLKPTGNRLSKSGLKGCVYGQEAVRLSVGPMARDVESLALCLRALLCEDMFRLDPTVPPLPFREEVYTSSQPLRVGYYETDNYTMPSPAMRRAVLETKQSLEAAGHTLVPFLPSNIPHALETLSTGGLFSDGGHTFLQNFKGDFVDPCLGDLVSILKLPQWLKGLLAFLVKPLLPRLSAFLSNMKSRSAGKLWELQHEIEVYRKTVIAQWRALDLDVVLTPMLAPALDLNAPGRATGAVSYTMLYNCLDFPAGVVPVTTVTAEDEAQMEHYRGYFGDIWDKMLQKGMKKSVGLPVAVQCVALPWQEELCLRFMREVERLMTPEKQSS
Experimental: Comparative compound potency at FAAH can be obtained with the following assay.
MAGL inhibitor compounds were also counter-screened for FAAH inhibition potency using the following assay. Assessment of FAAH inhibition was performed using Fatty Acid Amide Hydrolase Inhibitor Screening Assay Kit (Cayman Item No. 10005196) following manufacture's instruction with some modifications. The kit utilizes human recombinant FAAH and the fluorescent substrate, AMC Arachidonoyl amide (AAMCA). 5 μL of assay buffer (125 mM Tris, pH 9.0, 1 mM EDTA, i.e. ethylenediaminetetraacetic acid) was added to a 384-well black plate (Corning, 3573). Test compounds and control inhibitor JZL-195 (Cayman Chemical, 13668) were tested in 10-concentration IC50 mode with 3-fold serial dilution at a starting concentration of 100 μM and 10 μM, respectively. 300 nL or 30 nL of test compounds were delivered into a 384-well black plate (Corning, 3573) using a Labcyte Echo, followed by addition of 15 μL of FAAH enzyme (Cayman, 700302) in assay buffer. After a 5-minute pre-incubation at room temperature, 10 μL of AAMCA was added in assay buffer to start the reaction. Final concentration of FAAH enzyme is not specified and AAMCA substrate was used at the 20 uM. After these dilutions, the final concentration of the test compounds ranged from 100 μM to 5.08 nM or 10 μM down to 0.508 nM. The reaction was allowed to progress for 60 minutes, while the plate was read on an Envision plate reader at an Ex/Em of 350/460 nm with readings every minute. The data was analyzed in Microsoft Excel, using the slope between 30 and 59 minutes. The average of the no-enzyme wells (background) was subtracted from the data. The background-subtracted slope data was converted to % activity using the average of wells with enzyme and DMSO vehicle. IC50 values were calculated using GraphPad software (Sigmoidal dose response, variable slope equation).
Compounds listed in Table D2 were tested in the FAAH Counterscreen of Example 21

IC50	Compound
> 10 µM	Cc1ccccc1-n1nc(C2CC3(C2)CN(C(=O)c2cc(O)ccc2F)C3)cc1C [Compound 117]
> 10 µM	Cc1cc(C2CC3(C2)CN(C(=O)c2ccccc2F)C3)n(-c2ccccc2C)n1 [Compound 122, (2-fluorophenyl)(6-(3-methyl-1-(o-tolyl)-1H-pyrazol-5-yl)-2-azaspiro[3.3]heptan-2-yl)methanone]
> 10 µM	COc1ccc(F)c(C(=O)N2CC3(CC(c4cc(C)nn4-c4ccccc4C)C3)C2)c1 [Compound 123, (2-fluoro-5-methoxyphenyl)(6-(3-methyl-1-(o-tolyl)-1H-pyrazol-5-y1)-2-azaspiro[3.3]heptan-2-yl)methanone]
> 10 µM	Cc1cc(C2CC3(C2)CN(C(=O)c2cccc(O)c2)C3)n(-c2ccccc2C)n1 [Compound 125, (3-hydroxyphenyl)(6-(3-methyl-1-(o-tolyl)-1H-pyrazol-5-y1)-2-azaspiro[3.3]heptan-2-yl)methanone]
> 10 µM	Cc1cc(C2CC3(C2)CN(C(=O)c2c(F)ccc(O)c2F)C3)n(-c2ccccc2C)n1 [Compound 127, (2,6-difluoro-3-hydroxyphenyl)(6-(3-methyl-1-(o-tolyl)-1H-pyrazol-5-yl)-2-azaspiro[3.3]heptan-2-yl)methanone]

target: T3, human MAGL (Homo sapiens, UniProt Q99685); assay: MAGL inhibition potency (IC50) with 4NPA substrate, Example 20, methods of Table C; format: biochemical; conditions: not given
T3 construct: recombinant MAGL enzyme (aa 2-303 RBC, internal preparation)
T3 sequence (Q99685 2-303): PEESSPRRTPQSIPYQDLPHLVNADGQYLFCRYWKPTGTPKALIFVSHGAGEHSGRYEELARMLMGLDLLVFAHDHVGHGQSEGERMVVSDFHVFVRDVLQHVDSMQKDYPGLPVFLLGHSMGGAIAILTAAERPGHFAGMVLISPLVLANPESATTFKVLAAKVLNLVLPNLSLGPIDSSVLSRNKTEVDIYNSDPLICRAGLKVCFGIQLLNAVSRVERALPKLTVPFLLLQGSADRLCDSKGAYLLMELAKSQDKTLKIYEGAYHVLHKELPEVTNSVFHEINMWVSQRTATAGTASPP
Description: Cayman's Monoacylglycerol Lipase Inhibitor Screening Assay provides a method for screening human MAGL inhibitors. MAGL hydrolyzes 4-nitrophenylacetate resulting in a yellow product, 4-nitrophenol, with an absorbance of 405-412 nm. The monoacylglycerol lipase inhibitor screening assay kit from Cayman Chemical was used to measure the MAGL potency for the compounds in Table 4 and Table 5. Cayman's Monoacylglycerol Lipase Inhibitor Screening Assay provides a method for screening human MAGL inhibitors. MAGL hydrolyzes 4-nitrophenylacetate resulting in a yellow product, 4-nitrophenol, with an absorbance of 405-412 nm. MAGL Inhibition was measured by the following assay. Monoacylglycerol Lipase (MAGL) inhibition was measured using recombinant MAGL enzyme (aa 2-303 RBC, internal preparation) and the substrate 4-Nitrophenyl acetate (4NPA) (Sigma-Aldrich, N8130). Hydrolysis of the substrate in the presence of the enzyme was measured by absorbance at 405 nm. 10 μL of assay buffer (10 mM Tris pH 7.5, 1 mM EDTA, 0.9% DMSO) was added to a black 384-well non-binding plate with clear bottom (Greiner, 781906) for each reaction. […] DMSO control wells were included for reference. A 10.8 nM (1.8×) MAGL mix in assay buffer was prepared, with 25 μL added to each reaction well, for a final assay concentration of 6 nM. No enzyme wells received 25 μL of buffer. Plate was incubated at room temperature for 30 minutes. 35 mM solution of 4NPA in methanol was prepared daily. A 4.5×4NPA substrate solution was prepared in assay buffer and 10 μL was added to each reaction well, for a final assay concentration of 0.25 mM. Plate was spun for 1 minute at 1000 rpm before measuring absorbance using a CLARIOstar plate reader (BMG Labtech). A kinetic reading at 405 nm was done every minute for 30 minutes. Data was analyzed using the linear slope of the reaction progress curve and the average of the no-enzyme wells (background) was subtracted from the data. The background-subtracted slope data was converted to % activity using the average of wells with enzyme and DMSO vehicle. IC50s were calculated using GraphPad software (Sigmoidal dose response, variable slope equation). […] Table 6 is a table of potency measurements of MAGL inhibition measured for other compounds using the Potency Assay of Example 20 above, with the following modifications described in Table C. [table]

IC50	Compound
> 10 µM	Cc1cc(C2CC3(C2)CN(Cc2cc(O)ccc2F)C3)n(-c2ccccc2C)n1 [Compound 150, 4-fluoro-3-((6-(3-methyl-1-(o-tolyl)-1H-pyrazol-5-yl)-2-azaspiro [3.3]heptan-2-yl)methyl)phenol]

same assay, conditions: Method 2: MAGL (10 nM) Cayman Chemical Enzyme

IC50	Compound
> 10 µM	COc1cc(F)ccc1CN1CC2(CC(c3cc(C)nn3-c3ccccc3C)C2)C1 [Compound 149]
> 10 µM	COC(c1cccn1C)N1CC2(CC(c3cc(C)nn3-c3ccccc3C)C2)C1 (stereo not shown) [Compound 181]
> 10 µM	COC(c1ccn(C)c1)N1CC2(CC(c3cc(C)nn3-c3ccccc3C)C2)C1 (stereo not shown) [Compound 182]

same assay, conditions: Method 4: MAGL (15 nM) Cayman Chemical Enzyme

IC50	Compound
> 10 µM	CCOc1cc(F)ccc1C(=O)N1CC2(CC(C(=O)N(C)c3cccnc3C)C2)C1 [Compound 198]

same assay, conditions: Method 6: Enzyme Conc 6, Reaction Biology (6 nM)

IC50	Compound
> 10 µM	Cc1cnn(C2CC3(C2)CN(C(=O)c2cc(O)ccc2F)C3)c1-c1ccccc1Cl [Compound 404]
> 10 µM	Cc1ccccc1-c1ccnn1C1CC2(C1)CN(C(=O)c1cc(O)ccc1F)C2 [Compound 405]
> 10 µM	Cc1cc(-c2ccccc2C)n(C2CC3(C2)CN(C(=O)c2cc(O)ccc2F)C3)n1 [Compound 406]
> 10 µM	Cc1cn(C2CC3(C2)CN(C(=O)c2cc(O)ccc2F)C3)nc1-c1ccccc1Cl [Compound 416]
> 10 µM	Cc1ccccc1-c1ccn(C2CC3(C2)CN(C(=O)c2cc(O)ccc2F)C3)n1 [Compound 441]
> 10 µM	Cc1ccccc1-c1cc(C)n(C2CC3(C2)CN(C(=O)c2cc(O)ccc2F)C3)n1 [Compound 442]

same assay, conditions: Method 12: Enzyme Conc 15, Reaction Biology (15 nM)

IC50	Compound
> 10 µM	Cc1cnn(C2CC3(C2)CN(C(=O)c2cc(O)ccc2C(F)(F)F)C3)c1-c1ccccc1F [Compound 494]
> 10 µM	Cc1cn(C2CC3(C2)CN(C(=O)c2cc(O)ccc2C(F)(F)F)C3)nc1-c1ccccc1F [Compound 495]
> 10 µM	O=C(c1c(F)cccc1OC1CC1)N1CC2(CC(n3ncc(C(F)(F)F)c3-c3ccccc3F)C2)C1 [Compound 521]

same assay, conditions: Method 14: Enzyme Conc "0", Source "0"; Reaction Biology prep, 6 nM

IC50	Compound
> 10 µM	Cc1cc(C2CC3(C2)CN(C(=O)c2cc4c(cc2F)CCO4)C3)n(-c2ccccc2C)n1 [Compound 368]
> 10 µM	O=C(c1cc(O)ccc1F)N1CC2(CC(C(=O)N3CCOCC3)C2)C1 [Compound 384]
> 10 µM	O=C(c1cc(O)ccc1F)N1CC2(CC(C(=O)N3CCCC3)C2)C1 [Compound 388]
> 10 µM	O=C(c1cc(O)ccc1F)N1CC2(CC(C(=O)N3CCC4(COC4)C3)C2)C1 [Compound 391]
> 10 µM	O=C(NCC1COC1)C1CC2(C1)CN(C(=O)c1cc(O)ccc1F)C2 [Compound 395]
> 10 µM	Cc1cc(C2CC3(C2)CN(C(=O)c2ccc4c(c2)OCC4)C3)n(-c2ccccc2C)n1 [Compound 402]
> 10 µM	Cc1cc(C2CC3(C2)CN(C(=O)c2cccc4c2CCO4)C3)n(-c2ccccc2C)n1 [Compound 403]
